According to patent US20230135093A1, “TRIAZOLYL DERIVATIVES AS GABA A ALPHA5 PAM” (Hoffmann-La Roche Inc., priority 2020, published 2023):

Experiments:
[1] = biological target: T1, h-GABA-A α5β3γ2 (Homo sapiens, UniProt P18507+P31644); experiment: [3H]flumazenil competition binding assay on membranes of HEK293 cells expressing GABAA receptors; conditions: Table 1; displacement of [3H]-Flumazenil (0.5 nM), HEK293 cells expressing human receptors, means of two determinations
T1 construct: expressed in transfected cells; host or cells: Xenopus laevis oocytes, micro-injected with subunit RNA
Summary of the method: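 Membranes from HEK293 cells transiently expressing human α5β3γ2 were incubated 1 h at 4 °C in Krebs-tris pH 7.5 with 0.5 nM [3H]flumazenil and test compound. Nonspecific binding was set with 10^−5 M diazepam. Bound radioactivity was filtered and counted. Ki is the mean of two determinations.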

[2] = biological target: T1, h-GABA-A α5β3γ2; experiment: Two-electrode voltage clamp electrophysiology in Xenopus oocytes expressing GABAA receptors (modulation of GABA EC20 current); assay type: cell-based; conditions: Table 1; for Efficacy (GABA) %: % modulation of GABA EC20 = 100*(Fold increase-1); for Fold increase h-GABA-A α5β3γ2 oocyte: Xenopus oocytes, GABA EC20, test compound at approximatively 30 fold its Ki
Summary of the method: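 Oocytes injected with α5β3γ2 subunit RNA, recorded 3-5 days later by two-electrode clamp at −80 mV, room temperature, pH 7.4. The compound, at ~30-fold its Ki, was co-applied during a second GABA EC20 pulse. Efficacy was the extremum of the point-by-point second/first current ratio, given as % modulation (100×(fold−1)); n≥3 oocytes.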

Structure (SMILES)	Ki [1] [nM]	Efficacy (GABA) % [2] [%]	Fold increase h-GABA-A α5β3γ2 oocyte [2]
CCn1nnc(-c2ccc(Cl)cc2F)c1Cn1ncc(N2CC(Oc3ccc(Cl)nc3)C2)cc1=O [Example 101, 2-[[5-(4-chloro-2-fluoro-phenyl)-3-ethyl-triazol-4-yl]methyl]-5-[3-[(6-chloro-3-pyridyl)oxy]azetidin-1-yl]pyridazin-3-one]	9.2	126	2.26
CCn1nnc(-c2ccc(Cl)cc2F)c1Cn1ncc(N2CC(Oc3cccnn3)C2)cc1=O [Example 102, 2-[[5-(4-chloro-2-fluoro-phenyl)-3-ethyl-triazol-4-yl]methyl]-5-(3-pyridazin-3-yloxyazetidin-1-yl)pyridazin-3-one]	20.2	164	2.64
CCOc1ccc(-c2cnn(Cc3c(-c4ccc(Cl)cc4F)nnn3C)c(=O)c2)cn1 [Example 103, 2-((5-(4-chloro-2-fluoro-phenyl)-3-methyl-triazol-4-yl)methyl)-5-(6-ethoxy-3-pyridyl)pyridazin-3-one]	10.4	106	2.06
COc1ncc(-c2cnn(Cc3c(-c4ccc(Cl)cc4F)nnn3C)c(=O)c2)cc1C [Example 104, 2-((5-(4-chloro-2-fluoro-phenyl)-3-methyl-triazol-4-yl)methyl)-5-(6-methoxy-5-methyl-3-pyridyl)pyridazin-3-one]	11.8	158	2.58
CCn1nnc(-c2ccc(Cl)cc2F)c1Cn1ncc(-c2cnn(C3CC3)c2)cc1=O [Example 105, 2-((4-(4-chloro-2-fluorophenyl)-1-ethyl-1H-1,2,3-triazol-5-yl)methyl)-5-(1-cyclopropyl-1H-pyrazol-4-yl)pyridazin-3(2H)-one]	17.2	111	2.11
Cn1nnc(-c2ccc(Cl)cc2F)c1Cn1ncc(-c2cnn(CC(F)F)c2)cc1=O [Example 106, 2-((5-(4-chloro-2-fluoro-phenyl)-3-methyl-triazol-4-yl)methyl)-5-(1-(2,2-difluoro-ethyl)pyrazol-4-yl)pyridazin-3-one]	11.4	72	1.72
Cn1nnc(-c2ccc(Cl)cc2F)c1Cn1ncc(-c2cccc(C#N)n2)cc1=O [Example 107, 6-(1-((5-(4-chloro-2-fluoro-phenyl)-3-methyl-triazol-4-yl)methyl)-6-oxo-pyridazin-4-yl)pyridine-2-carbonitrile]	9	234	3.34
COc1cc(-c2cnn(Cc3c(-c4ccc(Cl)cc4F)nnn3C)c(=O)c2)cnc1Cl [Example 108, 2-((5-(4-chloro-2-fluoro-phenyl)-3-methyl-triazol-4-yl)methyl)-5-(6-chloro-5-metlioxy-3-pyridyl)pyridazin-3-one]	16.8	46	1.46
C[C@@H]1CCCN1c1cnn(Cc2c(-c3ccc(Cl)nc3)nnn2C)c(=O)c1 [Example 109, 2-[[5-(6-chloro-3-pyridyl)-3-methyl-triazol-4-yl]methyl]-5-[(2R)-2-methylpyrrolidin-1-yl]pyridazin-3-one]	1.1	75	1.75
CCn1nnc(-c2ccc(Cl)cc2F)c1Cn1ncc(-c2cnc(OC)c(Cl)c2)cc1=O [Example 110, 2-((4-(4-chloro-2-fluorophenyl)-1-ethyl-1H-1,2,3-triazol-5-yl)methyl)-5-(5-chloro-6-methoxypyridin-3-yl)pyridazin-3(2H)-one]	8.8	139	2.39
CCn1nnc(-c2ccc(Cl)cc2F)c1Cn1ncc(-c2cccc(C#N)n2)cc1=O [Example 111, 6-(1-((4-(4-chloro-2-fluorophenyl)-1-ethyl-1H-1,2,3-triazol-5-yl)methyl)-6-oxo-1,6-dihydropyridazin-4-yl)picolinonitrile]	23.8	290	3.9
C[C@@H]1CN(c2cnn(Cc3c(-c4ccc(Cl)nc4)nnn3C)c(=O)c2)C[C@H](C)O1 [Example 112, 2-[[5-(6-chloro-3-pyridyl)-3-methyl-triazol-4-yl]methyl]-5-[(2S,6R)-2,6-dimethylmorpholin-4-yl]pyridazin-3-one]	12.8	228	3.28
Cc1ccnn1C1CN(c2cnn(Cc3c(-c4ccc(Cl)cc4F)nnn3C)c(=O)c2)C1 [Example 113, 2-[[5-(4-chloro-2-fluoro-phenyl)-3-methyl-triazol-4-yl]methyl]-5-[3-(5-methylpyrazol-1-yl)azetidin-1-yl]pyridazin-3-one]	48.5	98	1.98
COc1ncc(-c2cnn(Cc3c(-c4ccc(C)nn4)nnn3C)c(=O)c2)cc1Cl [Example 114, 5-(5-chloro-6-methoxy-3-pyridyl)-2-[[3-methyl-5-(6-methylpyridazin-3-yl)triazol-4-yl]methyl]pyridazin-3-one]	3.6	154	–
CCOC1CN(c2cnn(Cc3c(-c4ncc(C(F)(F)F)cn4)nnn3C)c(=O)c2)C1 [Example 115, 5-(3-ethoxyazetidin-1-yl)-2-[[3-methyl-5-[5-(trifluoromethyl)pyrimidin-2-yl]triazol-4-yl]methyl]pyridazin-3-one]	47.4	74	1.74
CC(C)OC1CN(c2cnn(Cc3c(-c4ncc(C(F)(F)F)cn4)nnn3C)c(=O)c2)C1 [Example 116, 5-(3-isopropoxyazetidin-1-yl)-2-[[3-methyl-5-[5-(trifluoromethyl)pyrimidin-2-yl]triazol-4-yl]methyl]pyridazin-3-one]	66.1	48	1.48
Cn1nnc(-c2ncc(C(F)(F)F)cn2)c1Cn1ncc(N2CC(OC3CCC3)C2)cc1=O [Example 117, 5-[3-(cyclo-butoxy)azetidin-1-yl]-2-[[3-methyl-5-[5-(trifluoromethyl)pyrimidin-2-yl]triazol-4-yl]methyl]pyridazin-3-one]	52.7	87	1.87
COc1ncc(-c2cnn(Cc3c(-c4ncc(C(F)(F)F)cn4)nnn3C)c(=O)c2)cc1Cl [Example 118, 5-(5-chloro-6-methoxypyridin-3-yl)-2-((1-methyl-4-(5-(trifluoromethyl)pyrimidin-2-yl)-1H-1,2,3-triazol-5-yl)methyl)pyridazin-3(2H)-one]	15.4	135	2.35
Cn1nnc(-c2ncc(C(F)(F)F)cn2)c1Cn1ncc(N2CC(OCC(F)F)C2)cc1=O [Example 119, 5-[3-(2,2-difluoro-ethoxy)azetidin-1-yl]-2-[[3-methyl-5-[5-(trifluoromethyl)pyrimidin-2-yl]triazol-4-yl]methyl]pyridazin-3-one]	29.6	86	1.86
